Experimental data: PubChem BioAssay AID1919000 (Molecular Pharmacology Branch, DTP, NCI, 2023)
“And” between values parts separate entries of the source, which are not always exact repeats. Identical values can stand only once.

Tested on: 653999-131-R-J2-PDC complex spheroids, growth % test/control
Test: Anticancer human tumor 653999-131-R-J2-PDC patient-derived lung adenocarcinoma cell line growth inhibition [AhR]
Conditions: for viability, T/C: stronger effect = lower value
Source text: Multicellular complex tumor spheroid response to aryl hydrocarbon receptor antagonists in combination with a variety of drugs and investigational agents in selected tumor cell lines
The current study was undertaken to assess response to aryl hydrocarbon receptor antagonists in combination with standard-of-care drugs and investigational agents in solid tumor complex spheroid models. Complex spheroids include a stromal component modeled by human endothelial cells (HUVEC) and fibroblasts modeled by human mesenchymal stem cells (MSCs). The concentration ranges selected for each drug and investigational agent were based upon clinically achievable concentrations if the clinical Cmax of the agent was known.
Compounds. The drugs and investigational agents: BAY 2416964 (NSC825713), GNF351 (NSC835774), CH-223191 (NSC835775), CPI-455 (NSC825282), aza-TdCyd (NSC777586), decitabine (NSC127716), belinostat (NSC758774), entinostat (NSC756642), pevonedistat (NSC761192), tazemetostat (NSC777109), talazoparib (NSC765396), olaparib (NSC753686), selinexor (NSC780203), nedisertib (M3814, NSC802822), bortezomib (NSC756655), venetoclax (NSC766270), doxorubicin (NSC123127), elimusertib (BAY189344, NSC800525), ceralasertib (AZD6738, NSC777638), TAK-243 (NSC785004), alisertib (NSC759677), etoposide (NSC141540), topotecan (NSC609699), eribulin (NSC707389), gemcitabine (NSC613327), carboplatin (NSC241240), cisplatin (NSC119875), and SN-38 (NSC673596) were obtained from the National Cancer Institute (NCI) Developmental Therapeutics Program Chemical Repository (32). The FDA-approved anticancer drug set is available from the Developmental Therapeutics Program at https://dtp.cancer.gov/organization/dscb/obtaining/available plates.htm. […] The stock solutions were prepared in dimethyl sulfoxide (DMSO, Sigma-Aldrich, St. Louis, MO, cat. D2650), except for the platinum compounds which were prepared in saline (Quality Biological, Gaithersburg, MD, cat. 114-055-101), at 800-fold the tested concentration and stored at -70 degrees C prior to their use. All drugs and investigational agents were tested over a range starting from a high concentration at or near the clinical Cmax and decreasing in half-log increments. If the clinical Cmax for an agent had not been determined, the highest concentration tested was 10 microM (Table 1).
Cell Culture. All cells were maintained in an incubator at 37 degrees C and 5% CO2 with 95% humidity. The PDC lines were cultured according to standard operating procedures established by the NCI PDMR (https://pdmr.cancer.gov). Briefly, all PDCs were thawed and cultured in Matrigel-coated flasks prepared with a working solution of 1X Ham's F-12 nutrient mix, without supplementation (Invitrogen, Waltham, MA, cat. 11765054), 100 U/mL penicillin-streptomycin (Invitrogen, cat. 15140122), and 2.5% Matrigel (Corning Inc., Corning, NY, cat. 354248) for the first three passages. All PDCs were cultured in complete DMEM/F-12 media containing advanced DMEM/F-12 (Invitrogen, cat. 12634028), 4.9% defined fetal bovine serum, heat inactivated (HyClone Laboratories Inc., Logan, UT, cat. SH30070.03HI), 389 ng/mL hydrocortisone (Sigma-Aldrich, cat. H4001), 9.7 ng/mL human EGF recombinant protein (Invitrogen, cat. PHG0313), 23.4 microg/mL adenine (Sigma-Aldrich, cat. A2786), 97.3 U/mL penicillin-streptomycin (Invitrogen, cat. 15140122), 1.9 mM L-glutamine (Invitrogen, cat. 25030081), and 9.7 microM Y-27632 dihydrochloride (Tocris Bioscience, Bristol, United Kingdom, cat. 1254). The PDCs were cultured in complete DMEM/F12 media without 10 microM Y-27632 dihydrochloride for at least two passages prior to the screen. The established cell lines NCI-H1341 and […] were cultured in DMEM/F-12, HEPES (Invitrogen, cat. 11330032), 5% defined fetal bovine serum (HyClone Laboratories Inc., cat. SH30070.03), ITS premix universal culture supplement [insulin (5 microg/mL), transferrin (5 microg/mL), and selenious acid (5 ng/mL)] […]

[1] = curve of first compound, second compound 0.1 µM
[2] = curve of first compound, second compound 0.316 µM
[3] = curve of first compound, second compound 1 µM
[4] = curve of first compound, second compound 3.16 µM
[5] = curve of first compound, second compound 10 µM
[6] = second compound 0.1 µM, first compound 0.0316 µM
[7] = second compound 0.1 µM, first compound 0.1 µM
[8] = second compound 0.1 µM, first compound 0.316 µM
[9] = second compound 0.1 µM, first compound 1 µM
[10] = second compound 0.1 µM, first compound 3.16 µM
[11] = second compound 0.1 µM, first compound 10 µM
[12] = second compound 0.316 µM, first compound 0.0316 µM
[13] = second compound 0.316 µM, first compound 0.1 µM
[14] = second compound 0.316 µM, first compound 0.316 µM
[15] = second compound 0.316 µM, first compound 1 µM
[16] = second compound 0.316 µM, first compound 3.16 µM
[17] = second compound 0.316 µM, first compound 10 µM
[18] = second compound 1 µM, first compound 0.0316 µM
[19] = second compound 1 µM, first compound 0.1 µM
[20] = second compound 1 µM, first compound 0.316 µM
[21] = second compound 1 µM, first compound 1 µM
[22] = second compound 1 µM, first compound 3.16 µM
[23] = second compound 1 µM, first compound 10 µM
[24] = second compound 3.16 µM, first compound 0.0316 µM
[25] = second compound 3.16 µM, first compound 0.1 µM
[26] = second compound 3.16 µM, first compound 0.316 µM
[27] = second compound 3.16 µM, first compound 1 µM
[28] = second compound 3.16 µM, first compound 3.16 µM
[29] = second compound 3.16 µM, first compound 10 µM
[30] = second compound 10 µM, first compound 0.0316 µM
[31] = second compound 10 µM, first compound 0.1 µM
[32] = second compound 10 µM, first compound 0.316 µM
[33] = second compound 10 µM, first compound 1 µM
[34] = second compound 10 µM, first compound 3.16 µM
[35] = second compound 10 µM, first compound 10 µM
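Also: spheroids exposed to agents for seven days.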

Structure (SMILES)	IC50 [1]	IC50 [2]	IC50 [3]	IC50 [4]	IC50 [5]	viability, T/C [6]	viability, T/C [7]	viability, T/C [8]	viability, T/C [9]	viability, T/C [10]	viability, T/C [11]	viability, T/C [12]	viability, T/C [13]	viability, T/C [14]	viability, T/C [15]	viability, T/C [16]	viability, T/C [17]	viability, T/C [18]	viability, T/C [19]	viability, T/C [20]	further results
CC1COCCN1c1cc(C2(S(C)(=N)=O)CC2)nc(-c2ccnc3[nH]ccc23)n1 (configuration not stated)																					viability, T/C (compound 0.0316 µM): 109% and 102% and 99.7%; viability, T/C (compound 0.1 µM): 110% and 106% and 102%; viability, T/C (compound 0.316 µM): 104% and 101% and 107%; viability, T/C (compound 1 µM): 101% and 98.8% and 94.3%; viability, T/C (compound 3.16 µM): 87.2% and 70.5% and 81.3%; viability, T/C (compound 10 µM): 50.6% and 45.6% and 57.8%; IC50 (curve of compound): > 10 µM and 8.16 µM
O=C(C=Cc1cccc(S(=O)(=O)Nc2ccccc2)c1)NO + Cc1ccccc1N=Nc1ccc(NC(=O)c2ccnn2C)c(C)c1	3.9 µM	3.26 µM	3.56 µM	3.25 µM	2.86 µM	110%	105%	91.4%	94.7%	56.6%	11.3%	92.8%	94.8%	88%	90.6%	51.1%	9.29%	99.7%	101%	93.2%	viability, T/C [21]: 80.2%; viability, T/C [22]: 54.9%; viability, T/C [23]: 10.3%; viability, T/C [24]: 101%; viability, T/C [25]: 93.1%; viability, T/C [26]: 99%; viability, T/C [27]: 81.5%; viability, T/C [28]: 51.4%; viability, T/C [29]: 10.1%; viability, T/C [30]: 82.6%; viability, T/C [31]: 85.5%; viability, T/C [32]: 76.7%; viability, T/C [33]: 71.8%; viability, T/C [34]: 47.8%; viability, T/C [35]: 7.74%
COc1cc(C2c3cc4c(cc3C(OC3OC5COC(C)OC5C(O)C3O)C3COC(=O)C23)OCO4)cc(OC)c1O (configuration not stated) + Cc1ccccc1N=Nc1ccc(NC(=O)c2ccnn2C)c(C)c1	0.846 µM	0.568 µM	0.513 µM	0.965 µM	0.962 µM	86%	76%	58.6%	48.8%	38.1%	28.3%	86.2%	68.6%	54%	47.3%	34%	29.1%	90.2%	72.6%	53.7%	viability, T/C [21]: 42.8%; viability, T/C [22]: 37.7%; viability, T/C [23]: 30.2%; viability, T/C [24]: 80%; viability, T/C [25]: 77.4%; viability, T/C [26]: 62%; viability, T/C [27]: 46.1%; viability, T/C [28]: 42.5%; viability, T/C [29]: 27.7%; viability, T/C [30]: 72.6%; viability, T/C [31]: 68.7%; viability, T/C [32]: 58%; viability, T/C [33]: 49%; viability, T/C [34]: 41.4%; viability, T/C [35]: 31.8%
Nc1ccccc1NC(=O)c1ccc(CNC(=O)OCc2cccnc2)cc1 + Cc1ccccc1N=Nc1ccc(NC(=O)c2ccnn2C)c(C)c1	2.5 µM	3.46 µM	2.27 µM	1.9 µM	3.48 µM	91.9%	83%	79.2%	73.7%	43.4%	12.3%	91.4%	83.5%	69%	64.9%	62.3%	14.1%	83.8%	85.1%	70.4%	viability, T/C [21]: 58.5%; viability, T/C [22]: 50.4%; viability, T/C [23]: 13.9%; viability, T/C [24]: 89.3%; viability, T/C [25]: 84.7%; viability, T/C [26]: 70.2%; viability, T/C [27]: 54.4%; viability, T/C [28]: 50.5%; viability, T/C [29]: 13.3%; viability, T/C [30]: 86.4%; viability, T/C [31]: 81.6%; viability, T/C [32]: 71.4%; viability, T/C [33]: 59.6%; viability, T/C [34]: 63.1%; viability, T/C [35]: 13.4%
CC(C)c1c(-c2ccccc2)nc2c(C#N)c[nH]n2c1=O + CC(CO)NC(=O)c1cc(-c2ccc(Cl)cc2)nn(-c2cnn(C)c2)c1=O	> 10 µM	> 10 µM	> 10 µM	> 10 µM	> 10 µM	104%	105%	99.4%	94.2%	93.3%	90.9%	102%	105%	93.3%	101%	93.8%	99%	104%	106%	114%	viability, T/C [21]: 98%; viability, T/C [22]: 97.9%; viability, T/C [23]: 95.4%; viability, T/C [24]: 105%; viability, T/C [25]: 108%; viability, T/C [26]: 123%; viability, T/C [27]: 93.6%; viability, T/C [28]: 92.2%; viability, T/C [29]: 91.9%; viability, T/C [30]: 104%; viability, T/C [31]: 116%; viability, T/C [32]: 100%; viability, T/C [33]: 102%; viability, T/C [34]: 95.4%; viability, T/C [35]: 96.7%
